Results on four compounds are retold here after BindingDB's records for doi:10.1021/jm00101a009 (University of Minnesota, 1992).

A short description of this experiment: The compound was evaluated for binding affinity against Opioid receptor delta 1 in guinea pig brain membrane using [3H]- DPDPE as ligand.

Molecules are shown by their SMILES.

What is called Ki is a measure of affinity in units of concentration, obtained from inhibition or displacement.

For the compound `Oc1ccc2c3c1O[C@H]1c4[nH]c5ccccc5c4C[C@H]4C(C2)NCC[C@]314`, the Ki came out at 935 nM.
`Oc1ccc2c3c1O[C@H]1c4[nH]c5ccccc5c4C[C@@]4(O)C(C2)NCC[C@]314` returned a Ki of 11 nM.
Regarding `Oc1ccc2c3c1O[C@H]1c4[nH]c5ccccc5c4C[C@H]4C(C2)N(CCc2ccccc2)CC[C@]314` [22-phenethyl-14-oxa-11,22-diazaheptacyclo[13.9.1.01,13.02,21.04,12.05,10.019,25]pentacosa-4(12),5(10),6,8,15(25),16,18-heptaen-16-ol], the Ki was determined as 22 nM.
In the case of `Oc1ccc2c3c1O[C@H]1c4[nH]c5ccccc5c4C[C@@]4(O)C(C2)N(CCc2ccccc2)CC[C@]314` [22-phenethyl-14-oxa-11,22-diazaheptacyclo[13.9.1.01,13.02,21.04,12.05,10.019,25]pentacosa-4(12),5(10),6,8,15(25),16,18-heptaene-2,16-diol], the affinity corresponds to a Ki of 11 nM.
